{"source": "patent US9688966B2", "about": "“Compositions comprising cellobiose dehydrogenase from Pycnoporus cinnabarinus and their use for the degradation of lignocellulosic biomass” (INSTITUT NATIONAL DE LA RECHERCHE AGRONOMIQUE, priority 2011, dated 2017)", "target": "Pycnoporus cinnabarinus ss3 cellobiose dehydrogenase, recombinant (rCDH, C-terminal (His)6 tag, expressed in Pichia pastoris; GenBank HQ825322) (Trametes cinnabarina, UniProt F1DFN2)", "sequence (F1DFN2 1-750)": "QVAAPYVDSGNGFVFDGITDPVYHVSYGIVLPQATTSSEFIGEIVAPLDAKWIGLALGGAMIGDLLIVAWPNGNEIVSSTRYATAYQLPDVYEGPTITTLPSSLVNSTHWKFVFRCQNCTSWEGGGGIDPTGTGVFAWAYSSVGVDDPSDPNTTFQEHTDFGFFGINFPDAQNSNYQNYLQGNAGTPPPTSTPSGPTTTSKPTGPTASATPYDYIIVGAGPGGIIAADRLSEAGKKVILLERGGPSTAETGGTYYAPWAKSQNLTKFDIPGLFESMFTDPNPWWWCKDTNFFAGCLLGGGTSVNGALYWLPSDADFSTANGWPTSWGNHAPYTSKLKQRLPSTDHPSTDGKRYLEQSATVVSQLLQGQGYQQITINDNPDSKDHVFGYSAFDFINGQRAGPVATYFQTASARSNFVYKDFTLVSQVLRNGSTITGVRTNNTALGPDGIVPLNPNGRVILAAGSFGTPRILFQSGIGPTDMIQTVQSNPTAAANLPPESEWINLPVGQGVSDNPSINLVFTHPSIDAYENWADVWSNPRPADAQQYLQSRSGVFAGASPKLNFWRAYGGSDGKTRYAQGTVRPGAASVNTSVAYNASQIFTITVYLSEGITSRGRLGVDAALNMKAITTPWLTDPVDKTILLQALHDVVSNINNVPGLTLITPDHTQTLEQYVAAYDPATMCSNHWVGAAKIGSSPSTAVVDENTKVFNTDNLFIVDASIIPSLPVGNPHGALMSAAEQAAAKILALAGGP", "test": "Kinetic parameters of purified rCDH for electron acceptors (cellobiose oxidation, 30° C., pH 4.5)", "type": "biochemical", "procedure": "To measure enzyme activities in the P. cinnabarinus culture supernatant, each aliquot was centrifuged for 5 min at 3500 rpm and filtered through a 0.45 μm membrane (MILLIPORE, Bedford, Mass., USA). CDH activities were determined by monitoring the reduction of 0.2 mM 2,6-dichlorophenol indophenol (DCPIP) in 100 mM sodium acetate buffer (pH 5) containing 2 mM cellobiose and 4 mM of sodium fluoride (sodium fluoride was used as a laccase inhibitor). The decrease in absorption at 520 nm (ε=6800 M^−1·cm^−1) was monitored at 30° C. for 1 min. Alternatively, CDH activity was determined by monitoring the reduction of 50 μM cytochrome c (cyt c) in 100 mM sodium-acetate buffer (pH 5) containing 2 mM cellobiose. The decrease in absorption at 550 nm (ε=33,700 M^−1·cm^−1) was monitored at 30° C. for 1 min. Glucose oxidase was measured by using the D-gluconic acid/D-glucono-δ-lactone assay (MEGAZYME). Laccase activity was determined quantitatively by monitoring the oxidation of 5 mM ABTS (2,2′-azino-bis(3-ethylbenzthiazoline-6-sulfonic acid)) at 420 nm (extinction coefficient […] cm.^−1) in the presence of 50 mM NaK tartrate, pH 4.0. Lignin peroxidase activity was determined spectrophotometrically at 30° C. by the method of Tien and Kirk (1988, Methods Enzymol., vol. 161, pp: 238-249). Manganese peroxidase activity was determined spectrophotometrically at 30° C. by the method of Paszczynski et al. (1985, FEMS Microbiol. Lett. 29:37-41) using H2O2 and vanillylacetone as substrate. Enzyme activity was expressed in international units (IU). One unit of activity is defined as the quantity of enzyme that transforms 1 μmol of substrate in one minute.\nThe kinetic parameters (Vmax and Km) were determined for cellobiose oxidation measured at 30° C. in 50 mM citrate phosphate buffer pH 4.5 using DCPIP or cytochrome c. The concentration of cellobiose ranged from 10 to 700 μM with both electron acceptors (DCPIP and cytochrome c). Triplicates were run to ensure reliable kinetic parameter determination.\nGraphpad prism v.4 (Graphpad Software) was used for the nonlinear regression calculation and kinetic parameter determination.", "key": {"[1]": {"settings": "electron acceptor DCPIP, cellobiose as electron donor, 30° C., pH 4.5, apparent"}}, "data": [{"molecule": "O=C1C(Cl)=CC(=Nc2ccc(O)cc2)C=C1Cl", "note": "[DCPIP, 2,6-dichlorophenol indophenol]", "values": [{"measurement": "Vmax", "setting": "DCPIP, on cellobiose oxidation", "value": 22.2, "unit": "U·mg^−1"}, {"measurement": "Vmax", "setting": "[1]", "value": 22.2, "unit": "µmol/min/mg"}, {"measurement": "kcat", "setting": "[1]", "value": 40.8, "unit": "s⁻¹"}, {"measurement": "kcat/KM", "setting": "[1]", "value": "1.148e+06", "unit": "M⁻¹ s⁻¹"}]}]}
